{"source": "patent US20050220836A1", "about": "“Drug delivery device” (priority 2004, published 2005)", "key": {"[1]": {"system": "human coronary artery smooth muscle cell proliferation", "experiment": "in vitro cell culture study, coronary artery smooth muscle cell proliferation", "type": "cell-based", "text": "FIG. 51 is a graph of the inhibition of coronary artery smooth muscle cells by trichostatin A in a cell culture study."}, "tumor cell lines": {"system": "tumor cell lines", "conditions": "tumor cell lines (Woo et al., 2002); cited from earlier work"}, "[2]": {"system": "human coronary artery smooth muscle cells", "experiment": "anti-proliferative activity in synchronized cultured cells stimulated with two percent fetal bovine serum", "type": "cell-based", "text": "(§1) The multiple curves represent various concentrations of topotecan ranging from zero to three hundred nanomolar concentrations.\n(§2) The multiple curves represent various concentrations of etoposide ranging from zero to eight hundred nanomolar concentrations.\nThe multiple curves represent various concentrations of Panzem® ranging from zero to 100 micromolar concentrations."}, "cell viability": {"system": "cell viability", "experiment": "cell viability assay", "type": "cell-based", "text": "as §1, §2"}, "[3]": {"system": "human smooth muscle cells", "experiment": "Cladribine example, PDGF-stimulated cell proliferation, smooth muscle cells", "type": "cell-based", "conditions": "for % of PDGF-stimulated increase in cell count: SMC, day six, mean of triplicate", "description": "(§3) To assess the ability of cladribine to prevent cell proliferation, human smooth muscle or endothelial cells (Clonetics, Walkersville, Md.) were seeded at a density of 2000 cells/cm^2 (approximately 3600 cells/well) into each well of 12-well plates and cultured with 1.5 ml of growth medium containing five percent fetal calf serum (FCS). After twenty-four hours, the growth medium was changed and fresh medium containing 10 ng/ml platelet-derived growth factor AB (PDGF AB; LIFE Technologies), as well as various concentrations of cladribine (0.001-10,000 nM) were added with triplicate wells. Medium was replaced with fresh cladribine-containing medium after three days. On day six, cells were detached by trypsinization to yield a cell suspension, lightly centrifuged to pellet and then counted manually using a Neubauer hemocytometer system. Cell viability was assessed by trypan blue exclusion."}, "human endothelial cells": {"system": "human endothelial cells", "experiment": "Cladribine example, PDGF-stimulated cell proliferation, endothelial cells", "type": "cell-based", "conditions": "for % of PDGF-stimulated increase in cell count: EC, day six, mean of triplicate", "description": "as §3"}, "[4]": {"system": "human coronary artery smooth muscle cells", "experiment": "anti-proliferative activity in non-synchronized cultured cells stimulated with two percent fetal bovine serum", "type": "cell-based", "text": "The multiple curves represent various concentrations of mycophenolic acid ranging from zero to one thousand nanomolar concentrations.\nFIG. 58 illustrates, in graphical format, the anti-proliferative activity of cladribine in non-synchronized cultured human coronary artery smooth muscle cells stimulated with two percent fetal bovine serum.\nThe multiple curves represent various concentrations of cladribine ranging from zero to nine hundred nanomolar concentrations."}, "[5]": {"experiment": "in vivo release kinetics of cladribine from polymeric stent coatings", "parameters": "species or system Yorkshire pig", "conditions": "Bx Velocity stents", "text": "FIG. 61 is a graphical representation of the in vivo release kinetics of cladribine from a polymeric coating on BxVelocity® stents, available from Cordis Corporation, implanted in a Yorkshire pig. The basecoat comprises an 85/15 ratio of PVDF and HFP and cladribine for a total combined weight of one thousand eight hundred micrograms (cladribine comprising thirty percent of the total weight). […]\n(§4) The basecoat is applied to Bx Velocity® stents and implanted into Yorkshire pigs.\nas §4"}, "[6]": {"experiment": "in vivo release kinetics from rapamycin, mycophenolic acid and polymer coating, porcine pharmacokinetics studies", "conditions": "180 micrograms each drug, with or without BMA topcoat"}}, "data": [{"smiles": "CC(/C=C/C(=O)NO)=C\\[C@@H](C)C(=O)c1ccc(N(C)C)cc1", "note": "[trichostatin A]", "values": [{"measurement": "IC50", "setting": "[1]; human coronary artery smooth muscle cells, cell culture, read-out: anti-proliferative IC50", "result": "~6", "unit": "nM"}, {"measurement": "inhibition of human coronary artery smooth muscle cell proliferation", "setting": "[1]; in vitro cell culture", "result": "completely inhibit"}, {"measurement": "anti-proliferative IC50", "setting": "tumor cell lines", "result": "low nM range"}]}, {"smiles": "COc1cc([C@@H]2c3cc4c(cc3[C@@H](O[C@@H]3O[C@@H]5CO[C@@H](C)O[C@H]5[C@H](O)[C@H]3O)[C@H]3COC(=O)[C@H]23)OCO4)cc(OC)c1O", "note": "[Etoposide, etoposide]", "values": [{"measurement": "effect of addition on anti-proliferative activity of rapamycin", "setting": "[2]; etoposide zero to eight hundred nanomolar added to rapamycin", "result": "increases the percent inhibition of rapamycin alone"}, {"measurement": "cytotoxicity", "setting": "cell viability; at concentrations up to ten micromolar", "result": "non-cytotoxic"}]}, {"smiles": "COc1cc2c(cc1O)CC[C@@H]1[C@@H]2CC[C@]2(C)[C@@H](O)CC[C@@H]12", "note": "[Panzem®, 2-methoxyestradiol]", "values": [{"measurement": "effect of addition on anti-proliferative activity of rapamycin", "setting": "[2]; Panzem zero to 100 micromolar added to rapamycin", "result": "increases the percent of inhibition of rapamycin alone"}, {"measurement": "anti-proliferative activity alone", "setting": "[2]; two percent fetal bovine serum", "result": "extremely effective inhibitor"}]}, {"smiles": "Nc1nc(Cl)nc2c1ncn2[C@H]1C[C@H](O)[C@@H](CO)O1", "note": "[Cladribine, 2-chlorodeoxyadenosine]", "values": [{"measurement": "IC50", "setting": "[3]; Homo sapiens, PDGF AB stimulated, reduction to 50 percent of vehicle-treated cell count, read-out: IC50 for inhibition of smooth muscle cell growth", "result": 23, "unit": "nM"}, {"measurement": "% of PDGF-stimulated increase in cell count", "setting": "[3]; cladribine 0.01 nM", "result": 104, "unit": "%"}, {"measurement": "% of PDGF-stimulated increase in cell count", "setting": "[3]; cladribine 0.1 nM", "result": 86, "unit": "%"}, {"measurement": "% of PDGF-stimulated increase in cell count", "setting": "[3]; cladribine 1 nM", "result": 85, "unit": "%"}, {"measurement": "% of PDGF-stimulated increase in cell count", "setting": "[3]; cladribine 10 nM", "result": 54, "unit": "%"}, {"measurement": "% of PDGF-stimulated increase in cell count", "setting": "[3]; cladribine 100 nM", "result": 58, "unit": "%"}, {"measurement": "% of PDGF-stimulated increase in cell count", "setting": "[3]; cladribine 1000 nM", "result": 12, "unit": "%"}, {"measurement": "% of PDGF-stimulated increase in cell count", "setting": "[3]; cladribine 10,000 nM", "result": "−4", "unit": "%"}, {"measurement": "potency on smooth muscle cells relative to endothelial cells", "setting": "[3]; from the IC50 values", "result": "approximately twice as potent"}, {"measurement": "% of PDGF-stimulated increase in cell count", "setting": "human endothelial cells; cladribine 0.001 nM", "result": 100, "unit": "%"}, {"measurement": "% of PDGF-stimulated increase in cell count", "setting": "human endothelial cells; cladribine 0.01 nM", "result": 90, "unit": "%"}, {"measurement": "% of PDGF-stimulated increase in cell count", "setting": "human endothelial cells; cladribine 0.1 nM", "result": 79, "unit": "%"}, {"measurement": "% of PDGF-stimulated increase in cell count", "setting": "human endothelial cells; cladribine 1 nM", "result": 75, "unit": "%"}, {"measurement": "% of PDGF-stimulated increase in cell count", "setting": "human endothelial cells; cladribine 10 nM", "result": 59, "unit": "%"}, {"measurement": "% of PDGF-stimulated increase in cell count", "setting": "human endothelial cells; cladribine 100 nM", "result": 57, "unit": "%"}, {"measurement": "% of PDGF-stimulated increase in cell count", "setting": "human endothelial cells; cladribine 1000 nM", "result": 35, "unit": "%"}, {"measurement": "% of PDGF-stimulated increase in cell count", "setting": "human endothelial cells; cladribine 10,000 nM", "result": 10, "unit": "%"}, {"measurement": "IC50", "setting": "human endothelial cells; Homo sapiens, Endothelial cell, PDGF AB stimulated, reduction to 50 percent of vehicle-treated cell count, read-out: IC50 for inhibition of endothelial cell growth", "result": 40, "unit": "nM"}, {"measurement": "effect of addition on anti-proliferative activity of rapamycin", "setting": "[4]; cladribine zero to nine hundred nanomolar added to rapamycin, non-synchronized cells", "result": "increases the percent inhibition of rapamycin alone"}, {"measurement": "inhibition of human coronary artery smooth muscle cell proliferation", "setting": "[4]; non-synchronized cells, two percent fetal bovine serum", "result": "completely inhibits"}, {"measurement": "IC50", "setting": "[4]; non-synchronized human coronary artery smooth muscle cells, two percent fetal bovine serum", "result": "~241", "unit": "nM"}, {"measurement": "elution from PVDF/HFP (85/15) coating", "setting": "[5]; Yorkshire pig, 1800 microgram basecoat with thirty percent cladribine, 300 microgram topcoat", "result": "levels off significantly"}, {"measurement": "elution from EVA/BMA basecoat compared with rapamycin", "setting": "[5]; Yorkshire pigs, 200 microgram BMA topcoat", "result": "elutes more rapidly than rapamycin"}]}, {"smiles": "COc1c(C)c2c(c(O)c1C/C=C(\\C)CCC(=O)O)C(=O)OC2", "note": "[mycophenolic acid]", "values": [{"measurement": "effect of addition on anti-proliferative activity of rapamycin", "setting": "[4]; mycophenolic acid zero to one thousand nanomolar added to rapamycin, non-synchronized cells", "result": "potentiates the anti-proliferative activity of rapamycin"}, {"measurement": "release from EVA/BMA basecoat compared with rapamycin", "setting": "[6]", "result": "elutes more completely over a shorter duration than the rapamycin"}]}, {"smiles": "CC[C@@]1(O)C(=O)OCc2c1cc1n(c2=O)Cc2cc3c(CN(C)C)c(O)ccc3nc2-1", "note": "[Topotecan, topotecan]", "values": [{"measurement": "effect of addition on anti-proliferative activity of rapamycin", "setting": "[2]; topotecan zero to three hundred nanomolar added to rapamycin", "result": "increases the percent inhibition of rapamycin alone"}, {"measurement": "cytotoxicity", "setting": "cell viability; at concentrations up to one micromolar", "result": "non-cytotoxic"}]}]}
